Marks after values point to notes of the source that are not given here.
How the values were obtained:
Assay type in all cases: in vivo
[1] = test system: T24 (Human bladder cancer) xenografts; experiment: T24 xenograft growth inhibition; settings: ITE 100-200 mg/kg i.p. once daily
Description: (§1) All the procedures related to animal handling, care, and the treatment in the study were performed following guidelines of KeyGen Biotechn Co., Ltd. (Nanjing, China), a contract research organization we hired, based on the guidance of the Association for Assessment and Accreditation of Laboratory Animal Care (AAALAC). Animals were checked for any effects of tumor growth and drug treatment on normal behavior such as mobility, food and water consumption, body weight gain/loss (bodyweights were measured every two days), eye/hair matting, and any other abnormal effect. Death and observed clinical signs were recorded. Individual animals with a tumor volume exceeding 3,000 mm^3 or animals of a group with a mean tumor volume exceeding 2,000 mm^3 were euthanized. In addition, animals showing signs of severe distress and/or pain or losing the capability of accessing adequate food or water were humanely sacrificed.
(§2) Cell lines HCT116, Siha, MFC were cultured in DMEM medium (high glucose) supplemented with 10% fetal bovine serum (FBS), SW116 and T24 in RPMI-1640 medium with 10% FBS, M14 and A375 in DMEM medium (high glucose) with 10% calf serum (CS), SGC7901 and Ketr-3 in RPMI-1640 medium with 10% CS, and CFPAC-1 in IMDM medium with 10% FBS. All of the cells were cultured, in the presence of 100 U/ml penicillin and 100 μg/ml streptomycin, at 37° C. in an atmosphere of 5% CO2 in air. […] The cells growing in an exponential phase were harvested and counted for tumor inoculation. Cell lines 5180 and U14 were maintained in ascites (peritoneal cavity fluid) of mice and were harvested and counted for tumor inoculation. […]
(§3) Tumor volume was measured every two days in two dimensions using a caliper and the volume was calculated with a formula of: V=0.5 a×b^2, where a and b are the long and short diameter (in mm) of a tumor, respectively. […] The TGD was calculated as: TGD=T−C, where T was the time (in days) required for tumors in a drug treated group to reach a predetermined mean tumor volume and C the time (in days) in the control group to reach the same volume. […]

[2] = test system: SGC7901 (human stomach cancer) xenografts; experiment: SGC7901 xenograft growth inhibition; settings: ITE 100-200 mg/kg i.p. once daily
Description: as §1, §2, §3

[3] = ITE toxicity monitoring, 7-day i.p. dosing of ITE nano-suspension in C57BL/6 mice; settings: for #LYMPH / #NEUT / ALT / AST / BUN / NEUT / PLT / TP / WBC: group mean
Description: ITE nano-suspension was prepared by milling ITE powder in water containing 1% CMC-Na (sodium carboxymethyl cellulose), 0.5% SLS (sodium lauryl sulfate), 0.085% PVP K90 (polyvinylpyrrolidone K90), and 0.2% Benzoate with a Media Wet Milling Machine (Dispermat SL-nano, WAB Willy A. Bachofen A G, Muttenz, Switzerland) until reached a desired size range. The particle size was determined by a Laser Diffraction Particle Size Analyzer (MS2000, Malvern Instruments, Worcestershire, UK). The parameters of particle sizes were determined as D10 (diameter of 10% of particles)=67 nm, D50=114 nm, and D90=207 nm. The nano-suspension thus prepared was stored at 4° C. until use.
Female C57BL/6 mice, 6 to 8 week old, were randomly assigned to 4 dose groups (0, 20, 100, and 500 mg/kg b.w.) each with 6 animals. ITE nano-suspension was administered by i.p. injection once daily for 7 consecutive days. Mortality, clinical signs, body weight, and food consumption were recorded. Data on hematology (3 of 6 mice) and serum chemistry (the other 3 of 6 mice) were collected. TK (Toxicokinetic) parameters were determined as described in Example 1 and plasma levels of ITE at both 1 and 3 hr. post dosing on day 1, 3, and 7 were measured. A gross observation of major organs at necropsy was conducted.

[4] = end of therapy relative to beginning
[5] = 20 mg/kg ITE nano-suspension i.p. once daily 7 days
[6] = 100 mg/kg ITE nano-suspension i.p. once daily 7 days
[7] = 500 mg/kg ITE nano-suspension i.p. once daily 7 days
[8] = ITE nano-suspension 20, 100, 500 mg/kg b.w. i.p. once daily for 7 days

Compound: COC(=O)c1csc(C(=O)c2c[nH]c3ccccc23)n1 [ITE, 2-(1′H-indole-3′-carbonyl)-thiazole-4-carboxylic acid methyl ester]
- TGD ([1]; TGD at Vol. 1,000): 9 days
- TGI (%) ([1]; TGI at day 26, TGI=(1−ΔT/ΔC)×100%): 66%
- Weight Loss [1, 4]: 13%
- TGD ([2]; TGD at Vol. 1,000): 4 days
- TGI (%) ([2]; TGI at day 18, TGI=(1−ΔT/ΔC)×100%): 50%
- Weight Loss [2, 4]: 12%
- BUN raised over vehicle ([3]; 20 mg/kg (low dose) group): 1.4 folds
- #LYMPH [3, 5]: 3.35 ×10^9 cells
- #NEUT [3, 5]: 1.08 ×10^9 cells
- ALT [3, 5]: 43.2 U/L
- AST [3, 5]: 118.1 U/L
- BUN [3, 5]: 10.5* mmol/L
- NEUT [3, 5]: 23.3%
- PLT [3, 5]: 435 ×10^9 cells
- TP [3, 5]: 39.5 g/L
- WBC [3, 5]: 4.68 ×10^9 cells
- WBC raised ([3]; 100 mg/kg (mid) group): 2.6 folds
- #LYMPH [3, 6]: 3.5 ×10^9 cells
- #NEUT [3, 6]: 3.62 ×10^9 cells
- ALT [3, 6]: 33.2 U/L
- AST [3, 6]: 131.6 U/L
- BUN [3, 6]: 7.3 mmol/L
- NEUT [3, 6]: 46.6%
- PLT [3, 6]: 668 ×10^9 cells
- TP [3, 6]: 40.8 g/L
- WBC [3, 6]: 10.77* ×10^9 cells
- ALT raised over vehicle control ([3]; 500 mg/kg (high dose) group): 3.2 folds
- TP (total protein) raised over vehicle control ([3]; 500 mg/kg (high dose) group): 1.2 folds
- AST raised over vehicle control ([3]; 500 mg/kg (high dose) group, not significant): 1.8 folds
- WBC raised ([3]; 500 mg/kg (high) group, not significant): 2.0 folds
- #LYMPH [3, 7]: 4.81 ×10^9 cells
- #NEUT [3, 7]: 3.4 ×10^9 cells
- ALT [3, 7]: 74.5* U/L
- AST [3, 7]: 151.2 U/L
- BUN [3, 7]: 9.1 mmol/L
- NEUT [3, 7]: 40.5%
- PLT [3, 7]: 1075 ×10^9 cells
- TP [3, 7]: 49.5* g/L
- WBC [3, 7]: 8.38 ×10^9 cells
- body weight loss [3, 8]: no significant body weight loss
- mortality [3, 8]: no mortality observed except that one mouse in 20 mg/kg b.w. (low dose) group died
- food consumption ([3]; all 3 ITE treated groups, day 1 of the study): dramatic decrease in food consumption
- major organ inspection at necropsy ([3]; all the ITE treated groups): No abnormality was observed

From patent US10632106B2, “Methods of cancer treatment with 2-(1′H-Indole-3′-carbonyl)-thiazole-4-carboxylic acid methyl ester” (Ariagen, Inc., priority 2009, dated 2020)
